Test system: NX18 cells
Assay: Glioblastoma neurosphere cell viability with the test compound and an mTOR inhibitor, Cell TiterGlo
Format: cell-based
Conditions: NX18 neurospheres, 72 hours, normalized to DMSO vehicle; for cytotoxicity at 0.01 µM: mTOR inhibitor alone, final concentration 10 nM, read-out: percent inhibition of cell viability, mTOR inhibitor alone; for percent inhibition of cell viability, Combined: named mTOR inhibitor (10 nM) combined with test compound @ 3 μM
Procedure: After another 72 hours, cell viability was determined using the Cell TiterGlo kit (#G7570, Promega, Madison. WI) following the manufacturer's instructions on a Tecan M200 Pro Plate Reader (Tecan, Mannedorf, CH). Percent viable cells were normalized against vehicle control (DMSO set as 100%).

CO[C@H]1C[C@@H]2CC[C@@H](C)[C@@](O)(O2)C(=O)C(=O)N2CCCC[C@H]2C(=O)O[C@H]([C@H](C)C[C@@H]2CC[C@@H](O)[C@H](OC)C2)CC(=O)[C@H](C)/C=C(\C)[C@@H](O)[C@@H](OC)C(=O)[C@H](C)C[C@H](C)/C=C/C=C/C=C/1C [Rapamycin]
cytotoxicity at 0.01 µM: 41%
percent inhibition of cell viability, Combined: 61%

CO[C@H]1C[C@@H]2CC[C@@H](C)[C@@](O)(O2)C(=O)C(=O)N2CCCC[C@H]2C(=O)O[C@H]([C@H](C)C[C@@H]2CC[C@@H](OCCO)[C@H](OC)C2)CC(=O)[C@H](C)/C=C(\C)[C@@H](O)[C@@H](OC)C(=O)[C@H](C)C[C@H](C)/C=C/C=C/C=C/1C [Everolimus]
cytotoxicity at 0.01 µM: 45%
percent inhibition of cell viability, Combined: 60%

Cc1cc(NCCCN(C)C)nc(NC(=O)Nc2ccc(Cl)c(Cl)c2)n1 [Test compound]
cytotoxicity at 3 µM (test compound alone at 3 μM, read-out: percent inhibition of cell viability, Test compound @ 3 μM): 30%
